Experimental data published in publication PMC8147275, “Design, Synthesis, and Molecular Docking Study of New Tyrosyl-DNA Phosphodiesterase 1 (TDP1) Inhibitors Combining Resin Acids and Adamantane Moieties” (Pharmaceuticals, 2021).
“Also recorded” adds a separate entry of the source. Read-outs that look alike come from different tables or passages of the source.

Tests used:
[1] = biological target: T1, TDP1 (Homo sapiens, UniProt Q9NUW8); settings: Figure 2, known inhibitor; cited from earlier work
T1 construct: inferred from the pET 16B vector and purification on Ni-chelating resin; made in house

[2] = biological target: T1, TDP1; test: TDP1 assay: recombinant TDP1 with fluorescent biosensor (FAM/BHQ1), cell-free; assay type: biochemical; settings: recombinant TDP1 1.5 nM, biosensor 50 nM, 26 °C
Description: The primary screening of the inhibitory activities against TDP1 was performed using an in vitro cell-free system involving the recombinant TDP1 and a fluorescent reporter probe as previously described.
The recombinant TDP1 was purified to homogeneity by chromatography on Ni-chelating resin and phosphocellulose P11 as previously described, using plasmid pET 16B-TDP1, kindly provided by Dr. K.W. Caldecott (University of Sussex, United Kingdom). The TDP1 activity measurements were carried out as described. Briefly, TDP1-biosensor with fluorofore (FAM) at the 5′-end and a fluorescence quencher (BHQ1) at the 3′-end at a final concentration of 50 nM were incubated in a 200 μL volume that contained TDP1 buffer (50 mM Tris-HCl pH 8.0, 50 mM NaCl, and 7 mM β-mercaptoethanol) supplemented with purified 1.5 nM TDP1 and various concentrations of inhibitor. Fluorescence measurements (Ex485/Em520 nm) were carried out during the linear phase of the reaction (from 0 to 8 min for TDP1) every 55 sec. The reactions were incubated at a constant temperature of 26 °C in a POLARstar OPTIMA fluorimeter (BMG LABTECH, GmbH). The influence of compounds was evaluated by comparing the fluorescence increase rate in the presence of compounds with that of DMSO control wells. The data were imported into the MARS Data Analysis 2.0 program (BMG LABTECH), and the IC50 values (the concentration of a compound required to reduce the enzyme activity by 50%) were calculated.

[3] = tested on: T98G glioma cells; test: Cytotoxicity (MTT) alone and in combination with temozolomide; assay type: cell-based
Description: (§1) Since we used the T98G glioblastoma cell line for the first time for our experiments, we first attempted to perform the cytotoxicity study in a range of concentrations from 10 to 100 µM, as we did previously with the TDP1 inhibitory compounds when working with the other cell lines. However, the cytotoxicity at 50 and 100 µM of our compounds turned out to be rather high in the T98G cell line. We then measured the cytotoxicity of individual TDP1 inhibitors at 2.5, 5, 10, and 25 µM. The studied compounds were prepared as 50 mM stock solutions in DMSO and added to T98G glioma cells at 2.5 µM to 25 µM concentrations, either individually or in combination with 1000 or 2000 µM of TMZ. […] They were therefore discarded from the later cytotoxicity studies.
Individual TDP1 inhibitors were prepared as 50 mM stock solutions in DMSO and were added to the cells at 2.5, 5, 10, or 25 μM. Temozolomide was prepared as 200 mM stock solution in DMSO and was added at 1 mM or 2 mM concentrations, either alone or in combination with TDP1 inhibitors. T98G and SNB19 glioma cells were maintained in DMem/F12 medium supplemented with 10% foetal bovine serum, l-glutamine, and penicillin/streptomycin and were split at 10,000 cells/well into the 96-well plates for cytotoxicity experiments. The drugs or drug combinations were incubated with cells for 72 h, then the MTT reagent (3-(4,5-dimethylthiazol-2-yl)-2,5-diphenyltetrazolium bromide) was added for 4 h. The produced purple formazan dye reporting the activity of cellular oxireductases was dissolved overnight in 10% solution of acidified SDS and the absorbance was measured using a Tecan plate reader. Each concentration of individual substance or each drug combination was tested in triplicate. The data obtained were processed using MS Excel software and presented as histogram plots.

[4] = Solubility observations (stock solutions, solvents, cell growth medium); assay type: physicochemical; settings: light microscopy
Description: as §1

T1 sequence (Q9NUW8 whole entry): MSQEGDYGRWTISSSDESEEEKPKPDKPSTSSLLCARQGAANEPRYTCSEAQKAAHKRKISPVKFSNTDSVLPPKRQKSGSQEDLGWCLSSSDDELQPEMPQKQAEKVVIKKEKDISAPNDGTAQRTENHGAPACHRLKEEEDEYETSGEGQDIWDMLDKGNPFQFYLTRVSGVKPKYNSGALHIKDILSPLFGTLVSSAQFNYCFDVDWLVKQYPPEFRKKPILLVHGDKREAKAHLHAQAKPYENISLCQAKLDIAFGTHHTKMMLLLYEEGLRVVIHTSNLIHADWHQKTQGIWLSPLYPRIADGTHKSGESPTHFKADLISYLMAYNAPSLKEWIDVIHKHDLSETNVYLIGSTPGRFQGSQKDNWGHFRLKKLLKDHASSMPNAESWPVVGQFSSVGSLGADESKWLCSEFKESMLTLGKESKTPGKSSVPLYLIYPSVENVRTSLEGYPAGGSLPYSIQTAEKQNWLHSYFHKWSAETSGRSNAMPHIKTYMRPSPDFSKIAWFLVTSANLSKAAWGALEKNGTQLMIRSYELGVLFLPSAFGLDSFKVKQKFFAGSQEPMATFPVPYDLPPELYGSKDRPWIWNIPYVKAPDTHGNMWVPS

Structure (SMILES)	IC50 [2] [nM]	also measured
CC(=O)C1=C(O)C=C2Oc3c(-c4csc(N/N=C/CC(C)CCC=C(C)C)n4)c(O)c(C)c(O)c3[C@@]2(C)C1=O (stereo partly shown) [A]		IC50 [1]: 10.3 ± 0.4 nM
CC(C)=CCC/C(C)=C/COc1ccc2c(-c3ccc(F)cc3)cc(=O)oc2c1 [C]		IC50 [1]: 500 nM
CC(C)c1ccc2c(c1)CC[C@H]1[C@](C)(CNC(=O)NC34CC5CC(CC(C5)C3)C4)CCC[C@]21C [Compound 1, N-abieta-8,11,13-trien-18-yl-N’-1-adamantylurea]	190 ± 30	
CC(C)c1ccc2c(c1)CC[C@H]1[C@](C)(CNC(=O)NC3C4CC5CC(C4)CC3C5)CCC[C@]21C (stereo partly shown) [Compound 2, N-abieta-8,11,13-trien-18-yl-N’-2-adamantylurea]	800 ± 200	melting point: 150 °C; sensitization of glioma T98G cells to TMZ ([3]; combination with TMZ): most effective
CC(C)c1ccc2c(c1)CC[C@H]1[C@](C)(CNC(=S)NC34CC5CC(CC(C5)C3)C4)CCC[C@]21C [Compound 3, N-abieta-8,11,13-trien-18-yl-N’-1-adamantylthiourea]	1500 ± 500	
CC(C)c1ccc2c(c1)CC[C@H]1[C@](C)(CNC(=S)NC3C4CC5CC(C4)CC3C5)CCC[C@]21C (stereo partly shown) [Compound 4, N-abieta-8,11,13-trien-18-yl-N’-2-adamantylthiourea]	670 ± 190	
CC(C)c1ccc2c(c1)CC[C@H]1[C@](C)(CNC(N)=O)CCC[C@]21C [Compound 5, N-abieta-8,11,13-trien-18-ylurea]	> 15000	IC50 (TDP1) [2]: no activity; also recorded: failed to inhibit TDP1
CC(C)c1ccc2c(c1)CC[C@H]1[C@](C)(CNC(=O)C34CC5CC(CC(C5)C3)C4)CCC[C@]21C [Compound 6, N-abieta-8,11,13-trien-18-yladamantan-1-carboxamide]	940 ± 180	
CC(C)c1ccc2c(c1)CC[C@H]1[C@](C)(CNC(=O)C3C4CC5CC(C4)CC3C5)CCC[C@]21C (stereo partly shown) [Compound 7, N-abieta-8,11,13-trien-18-yladamantan-2-carboxamide]	1800 ± 400	behaviour of stock solution dissolved in cell growth medium [4]: formed visible micelles
CC(C)c1ccc2c(c1)CC[C@H]1[C@](C)(CNC(=S)C34CC5CC(CC(C5)C3)C4)CCC[C@]21C [Compound 8, N-abieta-8,11,13-trien-18-yladamantan-1-carbothioamide]	2300 ± 800	behaviour of stock solution dissolved in cell growth medium [4]: formed visible micelles
CC(C)c1ccc2c(c1)CC[C@H]1[C@](C)(NC(=O)NC34CC5CC(CC(C5)C3)C4)CCC[C@]21C [Compound 9, N-1-adamantyl-N’-[(1R,4aS,10aR)-7-isopropyl-1,4a-dimethyl-1,2,3,4,4a,9,10,10a-octahydrophenanthren-1-yl]urea]	570 ± 160	
CC(C)c1ccc2c(c1)CC[C@H]1[C@](C)(NC(=O)NC3C4CC5CC(C4)CC3C5)CCC[C@]21C (stereo partly drawn) [Compound 10, N-2-adamantyl-N’-[(1R,4aS,10aR)-7-isopropyl-1,4a-dimethyl-1,2,3,4,4a,9,10,10a-octahydrophenanthren-1-yl]urea]	590 ± 150	
CC(C)C1=CC2=CC[C@H]3[C@](C)(NC(=O)NC45CC6CC(CC(C6)C4)C5)CCC[C@]3(C)C2CC1 (stereo partly drawn) [Compound 11, N-1-adamantyl-N’-[(1R,4aR,10aR)-7-isopropyl-1,4a-dimethyl-1,2,3,4,4a,4b,5,6,10,10a-decahydrophenanthren-1-yl]urea]	1700 ± 600	
CC(C)C1=CC2=CC[C@H]3[C@](C)(NC(=O)NC4C5CC6CC(C5)CC4C6)CCC[C@]3(C)C2CC1 (stereo partly drawn) [Compound 12, N-2-adamantyl-N’-[(1R,4aR,10aR)-7-isopropyl-1,4a-dimethyl-1,2,3,4,4a,4b,5,6,10,10a-decahydrophenanthren-1-yl]urea]	1400 ± 300	
CC(C)CCCC(C)CCOC(=O)C12CC3CC(CC(C3)C1)C2 (stereo not shown) [E]		IC50 [1]: 920 nM
Cn1nnc2c(C(N)=O)ncn2c1=O [TMZ, temozolomide]		cells surviving the treatment ([3]; TMZ alone 1000 µM, 72 h, MTT): ~ 95%; inhibition of cell viability ([3]; TMZ alone 2000 µM, 72 h, MTT): ~ 40%
